Values quoted from earlier work as cited in publication PMC9762682, “Tocotrienols: Exciting Biological and Pharmacological Properties of Tocotrienols and Naturally Occurring Compounds, Part II” (Annals of clinical case reports, 2022).

Tests used:
[1] = test system: hypercholesterolemic subjects
[2] = test system: plasma TNF-α, IL-2, IL-4, IL-6, IL-8, IL-10; set-up: method as in earlier work; settings: 250 mg/d + AHA Step-1 diet; baseline = 100
[3] = test system: gene expression of TNF-α, IL-2, IL-4, IL-6, IL-8, IL-10; set-up: method as in earlier work; settings: 250 mg/d + AHA Step-1 diet; baseline = 100
plasma miRNAs = test system: plasma miRNAs; set-up: method as in earlier work
[4] = test system: cytokines, adiponectin, TGF-β1, leptin; set-up: method as in ref 14 = [14]; PMID 27493840; doi:10.4172/2155-9880.1000434; 14. Qureshi AA , Khan DA , Saleem S , Silswal N , Trias AM , Tan B , Pharmacokinetics and bioavailability of Annatto δ-tocotrienol in healthy fed subjects . J Clin Exp Cardiol . 2015; 6 : 11 . 10.417; settings: δ-tocotrienol treatment, pharmacokinetic study
Hela cells = test system: Hela cells; set-up: method as in PMID 29606130; value at effective dose: unit not given here;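 as to IC50: anti-proliferation of cancer cells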
Liver cancer cells = test system: Liver cancer cells; set-up: method as in PMID 29606130; value at effective dose: unit not given here
Prostate cancer cells = test system: Prostate cancer cells; set-up: method as in PMID 29606130; value at effective dose: scale not given here;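 as to IC50: anti-proliferation of cancer cells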
Lung cancer cells = test system: Lung cancer cells; set-up: method as in PMID 29606130; value at effective dose: unit not given here
Melanoma cells = test system: Melanoma cells; set-up: method as in PMID 29606130
[5] = 250 mg/d + AHA Step-1 diet, baseline = 100
[6] = serum, two capsules/d for 24-weeks

IC50 (Hela cells): 5 µM
percentage of control at IC50 dose (Hela cells): 45%
IC50 (Liver cancer cells): 20 µM
percentage of control at IC50 dose (Liver cancer cells): 53%
IC50 (Prostate cancer cells): 10 µM
percentage of control at IC50 dose (Prostate cancer cells): 39%
IC50 (Lung cancer cells): 20 µM
percentage of control at IC50 dose (Lung cancer cells): 11%
IC50 (Melanoma cells): 10 µM
percentage of control at IC50 dose (Melanoma cells): 50%
Compound: CC(C)=CCC/C(C)=C/CC/C(C)=C/CC[C@]1(C)CCc2cc(O)cc(C)c2O1 [δ-Tocotrienol]
reduction of LDL-cholesterol (maximum effect) ([1]; 250 mg/d + AHA Step-1 diet): 18%
reduction of total cholesterol (maximum effect) ([1]; 250 mg/d + AHA Step-1 diet): 15%
reduction of triglycerides (maximum effect) ([1]; 250 mg/d + AHA Step-1 diet): 14%
effect on HDL-cholesterol ([1]; 125-750 mg/d + AHA Step-1 diet): without affecting
levels of lipid parameters ([1]; above 500 mg/d dose + AHA Step-1 diet): induction
plasma IL-2 [2]: 55.5 ± 0.71
plasma IL-4 [2]: 49.0 ± 1.41
plasma IL-6 [2]: 38.5 ± 2.21
plasma IL-8 [2]: 43.5 ± 0.71
plasma IL-10 [2]: 63.5 ± 2.12
plasma TNF-α [2]: 48.5 ± 0.7
Gene Expression IL-2 [3]: 91.5 ± 3.54
Gene Expression IL-4 [3]: 77.5 ± 2.12
Gene Expression IL-6 [3]: 73.5 ± 0.71
Gene Expression IL-8 [3]: 92.0 ± 2.83
Gene Expression IL-10 [3]: 89.0 ± 1.41
Gene Expression TNF-α [3]: 84.5 ± 0.71^a, ^**
plasma miRNA-7a (plasma miRNAs; [5]): 168.0 ± 1.41
plasma miRNA-15a (plasma miRNAs; [5]): 179.0 ± 1.41
plasma miRNA-20a (plasma miRNAs; [5]): 168.00 ± 2.24
plasma miRNA-21 (plasma miRNAs; [5]): 143.0 ± 2.83
plasma miRNA-29a (plasma miRNAs; [5]): 142.0 ± 2.83
plasma miRNA-92a (plasma miRNAs; [5]): 153.5 ± 2.12
plasma miRNA-200 (plasma miRNAs; [5]): 146.0 ± 1.41
plasma miRNA-206 (plasma miRNAs; [5]): 150 ± 2.83
Circulating miRNA-7a, miRNA-15a, miRNA-20a, miRNA-21, miRNA-29a, miRNA-92a, miRNA-200, miRNA-206 (plasma miRNAs; compared to baseline in hypercholesterolemic subjects): up-regulated
adiponectin, TGF-β1, and leptin [4]: up-regulation
eight cytokines [4]: down-regulation
effective dose (Hela cells; 48 h): 20 µM
percentage of control at effective dose (Hela cells; 48 h): 18%
value at effective dose (Hela cells; 48 h): 8.3 ± 2.1
effective dose (Liver cancer cells; 48 h): 20 µM
percentage of control at effective dose (Liver cancer cells; 48 h): 24%
value at effective dose (Liver cancer cells; 48 h): 17.7 ± 2.1
effective dose (Prostate cancer cells; 48 h): 20 µM
percentage of control at effective dose (Prostate cancer cells; 48 h): 35%
value at effective dose (Prostate cancer cells; 48 h): 12.3 ± 1.5
effective dose (Lung cancer cells): 20 µM
percentage of control at effective dose (Lung cancer cells): 11%
value at effective dose (Lung cancer cells): 8.3 ± 2.1
effective dose (Melanoma cells): 20 µM
percentage of control at effective dose (Melanoma cells): 37%
Fasting Glucose, Post-dose, percentage of control (pre-dose) in parentheses (people with T2DM; [6]): 93%
MDA, Post-dose (people with T2DM; [6]): 3.22 µmol/L
MDA, Post-dose, percentage of control (pre-dose) in parentheses (people with T2DM; [6]): 89%
hs-CRP, Post-dose (people with T2DM; [6]): 3.10 mg/L
hs-CRP, Post-dose, percentage of control (pre-dose) in parentheses (people with T2DM; [6]): 88%
Fasting Glucose, Post-dose (people with T2DM; serum, two capsules/d for 24-weeks (δ-tocotrienol 250 mg, vitamin D3 5000 IU, resveratrol 250 mg per capsule)): 6.85 mmol/L
Fasting HbA1c, Post-dose (people with T2DM; two capsules/d for 24-weeks): 7.79%
Fasting HbA1c, Post-dose, percentage of control (pre-dose) in parentheses (people with T2DM; two capsules/d for 24-weeks): 92%
HOMA-IR, Post-dose (people with T2DM; two capsules/d for 24-weeks): 4.51
HOMA-IR, Post-dose, percentage of control (pre-dose) in parentheses (people with T2DM; two capsules/d for 24-weeks): 86%
